“And” between values parts separate entries of the source, which are not always exact repeats. Equal values may be shown once.
Columns and labels:
[1] = DNDI: Cytotoxicity against human MRC-5 lung fibroblast cells.; details: IC50
[2] = tested on: Trypanosoma brucei brucei; assay: microbe, parasite or virus in culture; format: functional, organism-based, STIB 795
Description: DNDI: Inhibition of Human African Trypanosomiasis (HAT), STIB 795, in vitro

Row | Compound | IC50 [1] [µM] | IC50 ([2]; Trypanosoma brucei, STIB 795) [µM] | IC50 [2]
1 | N=c1n(Cc2ccccc2)c2ccccc2n1CC(O)COc1ccccc1 (stereo not drawn) | > 41.7 | 7.55 | –
2 | CCN(CC)c1ccc(/C=C/C2=[N+](C)c3ccc(C(=O)OC)cc3C2(C)C)cc1 | 3.86 | 0.056 | –
3 | O=C(NCCc1csc(-c2ccc(F)cc2)n1)c1ccc(Br)o1 | > 41.7 | 4.66 | –
4 | CCN1CCN(C(c2cccnc2)c2cc(Cl)c3cccnc3c2O)CC1 (stereo not drawn) | > 41.7 | 5.83 | –
5 | CCCCC(=O)NC(c1ccc(N(C)C)cc1)c1ccc2cccnc2c1O (stereo not drawn) | > 20.8 | 5.84 | –
6 | CC(C)C1CC(CCNCc2ccc(N(C)C)cc2)(c2ccccc2)CCO1 (stereo not drawn) | > 41.7 | 5.22 | –
7 | C=CCN1C(=O)C(O)(CC(=O)c2ccco2)c2cc(Br)ccc21 (stereo not drawn) | > 41.7 | 0.483 | –
8 | COC(=O)c1ccc(C2N=C(c3cccs3)CC(c3ccccc3O)N2)cc1 (stereo not drawn) | > 41.7 | 5.51 | –
9 | CCCOc1cccc(C(=O)Nc2cccc(-c3nc4ncccc4o3)c2C)c1 | > 4.17 | 0.662 | –
10 | CC(C)(C)OC(=O)N1CCC[C@H]1c1nnc(SCc2cccc(Cl)c2)o1 | 2.87 | 0.538 | –
11 | COc1ccc(C(NC(=O)CC(C)C)c2ccc3cccnc3c2O)cc1OC (stereo not drawn) | 0.685 | 0.6 | –
12 | CCN1/C(=C/C(=C/c2sc3ccccc3[n+]2CC)OC)Sc2ccccc21 | 2.25 | 0.524 | –
13 | CC(C)(C)C(=O)N1N=C(c2ccc(NS(C)(=O)=O)cc2)CC1c1ccco1 (stereo not drawn) | > 20.8 | 5.6 | –
14 | CC(C)C1N=C(c2ccc3c(c2)OCO3)CC(c2cc(Cl)ccc2O)N1 (stereo not drawn) | > 41.7 | 5.58 | –
15 | CCOc1ccc2nc3cc(NCc4ccccc4OC)ccc3c(N)c2c1 | > 20.8 | 4.58 | –
16 | COC(=O)c1ccc2c(c1)C(C)(C)C(/C=C/c1c(C)[nH]c3ccccc13)=[N+]2C | > 4.17 | 2.97 | –
17 | CC(C)n1c(=N)n(CCOc2ccc(Br)cc2)c2ccccc21 | > 4.17 | 2.02 | –
18 | CCC1=C(C)c2cc3nc(C(=O)OCc4ccccc4)c(C)c-3c(C)n2C1C (stereo not drawn) | > 41.7 | 5.66 | –
19 | CC1(C)CC2CC(C)(CN2C(=O)COCc2cc(-c3cccs3)on2)C1 (stereo not drawn) | > 41.7 | 5.44 | –
20 | Cc1ccccc1OCCn1c(=N)n(Cc2ccccc2F)c2ccccc21 | > 20.8 | 4.95 | –
21 | CCOC(=O)c1ccc(CCCCCON2C(N)=NC(N)=NC2(C)C)cc1 | > 1.04 | 1.05 | –
22 | CCOc1cc2c(cc1OCC)C(c1ccc(Br)cc1)NCC2 (stereo not drawn) | > 41.7 | 5.55 | –

Row | Compound | IC50 [1] [µM] | IC50 ([2]; Trypanosoma brucei, STIB 795) [µM] | IC50 [2]
23 | O=C(CS(=O)(=O)c1ccc(F)cc1)Nc1nc(-c2ccccn2)cs1 | > 10.4 | 0.791 | –
24 | N=c1n(CCOc2ccccc2)c2ccccc2n1Cc1ccc(Cl)cc1 | > 41.7 | 6.63 | –
25 | Cc1ccc(-c2cc(C(F)F)nc(SC3CC(=O)C4OCC3O4)n2)cc1 (stereo not drawn) | > 41.7 | – | > 10.4 µM and 5.2 µM
26 | CC(C)Cc1nc(NCCC2CCCN2C)c2cnn(-c3ccccc3)c2n1 (stereo not drawn) | > 20.8 | 2.66 | –
27 | COc1ccc(-c2cs/c(=N\CC3CCNCC3)n2-c2ccccc2)cc1 | > 20.8 | 5.74 | –
28 | CN(C)c1ccc(/C=C/c2cc(-c3ccccc3)n(-c3ccccc3)[n+]2C)cc1 | > 20.8 | 0.68 | –
29 | COc1ccccc1C(CCNC(C)c1ccccc1)C1CCOC(C)(C)C1 (stereo not drawn) | > 41.7 | 4.74 | –
30 | C=CCN(CC=C)Cc1c(O)ccc2c(=O)c(-c3ccccc3Cl)coc12 | > 41.7 | 5.19 | 5.3 µM
31 | O=C(N/N=C/c1cc(I)ccc1O)c1ccccc1O | > 4.17 | 44.4 | –
32 | CC(O)CN1C(=O)c2ccc3c4c(ccc(c24)C1=O)C(=O)N(CC(C)O)C3=O (stereo not drawn) | > 41.7 | 5.05 | –
33 | CC(C)(C)c1cc(C(c2ccccn2)N2CCOCC2)cc(C(C)(C)C)c1O (stereo not drawn) | > 41.7 | 10.6 | –
34 | COc1ccccc1C(=O)c1sc(Nc2ccc3c(c2)OCCO3)nc1N | > 1.04 | ≤ 1.08 | –
35 | COc1ccccc1C(NC(=O)c1ccccc1)c1ccc2cccnc2c1O (stereo not drawn) | > 10.4 | 5.68 | –
36 | Oc1c(/C=N/NC(=S)Nc2cccc(F)c2)cc2c3c1CCCN3CCC2 | > 41.7 | 3.08 | –
37 | Fc1ccc(C(CCCN2CCN3CCCCC3C2)c2ccc(F)cc2)cc1 (stereo not drawn) | > 41.7 | 5.31 | –
38 | O=C(N/N=C/c1c(O)ccc2ccccc12)c1cc(Br)ccc1O | > 4.17 | 3.77 | –
39 | Cc1ccc2c(c1)OCC(CC(=O)NCCN(C)C)N2Cc1ccc(F)cc1 (stereo not drawn) | > 4.17 | 2.2 | –
40 | CC(C)c1ccc(-c2csc(NC(=O)C3C4CCC(O4)C3C(=O)O)n2)cc1 (stereo not drawn) | > 41.7 | 1.56 | 0.879 µM
41 | CC(=O)Nc1ccc(C)cc1S(=O)(=O)NCCn1c(C)nc2ccccc21 | > 41.7 | 4.83 | –
42 | CCS(=O)(=O)N1CCCc2ccc(NS(=O)(=O)c3cccs3)cc21 | > 41.7 | 0.796 | –
43 | Cc1c(Br)c(C(=O)N/N=C/c2c(O)ccc3ccccc23)nn1C | > 20.8 | ≤ 10.4 | –
44 | COc1ccc(C2(CCNCc3ccc(Cl)cc3)CCOC(C)(C)C2)cc1 (stereo not drawn) | > 41.7 | 7.61 | –

Row | Compound | IC50 [1] [µM] | IC50 ([2]; Trypanosoma brucei, STIB 795) [µM] | IC50 [2]
45 | O=C1CC(n2nnn(-c3ccc(OC(F)(F)F)cc3)c2=S)C2COC1O2 (stereo not drawn) | > 41.7 | 4.99 | –
46 | CCCN1C(=O)C(O)(CC(=O)c2cccnc2)c2cc(Br)ccc21 (stereo not drawn) | > 41.7 | 0.617 | –
47 | N#C/C(=C\c1cccn1-c1ccc(S(N)(=O)=O)cc1)c1nc2ccccc2[nH]1 | > 41.7 | 4.99 | –
48 | CCCCCOc1ccc(NC(=O)C(=O)NC2CC(C)(C)NC(C)(C)C2)cc1 | > 41.7 | 4.86 | –
49 | Cc1ccc(Cn2cc(CCC(=O)NCCN3CCCC3)c3ccccc32)cc1 | > 20.8 | 3.3 | –
50 | COc1ccc(/C(N)=N/OC(=O)c2cc(OC)c(OC)cc2OC)cc1OC | > 41.7 | 0.798 | –
51 | CN(C)S(=O)(=O)c1ccc(C(=O)Nc2nnc(-c3ccc(F)cc3)o2)cc1 | > 41.7 | 4.94 | –
52 | COc1ccccc1C(NC(=O)C1CCCCC1)c1ccc2cccnc2c1O (stereo not drawn) | > 41.7 | 10.9 | –
53 | CC1(C)CC(=O)c2sc(NC(=O)c3sc4ccccc4c3Cl)nc2C1 | > 41.7 | 0.442 | –
54 | CCOC(=O)c1ccc(NC(=O)Cn2c(C(F)(F)F)nc3ccccc32)cc1 | > 41.7 | 6.08 | 7.85 µM
55 | COc1ccccc1C(=O)Nc1ccccc1Sc1cc(C)nc2ncnn12 | > 41.7 | 4.02 | –
56 | COc1ccccc1C1N=C(c2ccc(Cl)cc2)CC(c2ccccc2O)N1 (stereo not drawn) | > 41.7 | 5.24 | –
57 | CN1CCC(=NNC(=O)c2cc(-c3ccc(Cl)cc3)nc3ccccc23)CC1 | > 41.7 | 5.52 | –
58 | O=c1ccccc2c(/C=C/c3cccc(Cl)c3Cl)nn(-c3ccccc3)c12 | > 10.4 | 5.34 | –
59 | CC(=O)NC1=C(N2CCN(C(=O)c3ccco3)CC2)C(=O)c2ccccc2C1=O | > 41.7 | 5.41 | 5.36 µM
60 | Cc1nc2ncnn2c(Sc2ccccc2NC(=O)c2cccc(F)c2)c1C | > 20.8 | 1.66 | –
61 | O=C(CC(Sc1cccc2cccnc12)c1ccc(F)cc1)c1cccs1 (stereo not drawn) | > 20.8 | 0.516 | –
62 | COc1ccc(C2=NC3(CCN(C(C)C)CC3)NC(c3ccccc3O)C2)cc1 (stereo not drawn) | > 20.8 | 1.37 | –
63 | CCN1/C(=C/C=C/c2sc3c(C)cccc3[n+]2CC)Sc2c(C)cccc21 | > 20.8 | 0.501 | –
64 | O=C(Nc1ccc(Cl)cc1)O/N=C(/c1ccc(Cl)cc1)N1CCOCC1 | > 41.7 | 4.31 | –
65 | CCCn1c(=N)n(CC(O)COc2ccc(Cl)cc2Cl)c2ccccc21 (stereo not drawn) | 8.79 | 1.94 | –
66 | Cc1ccc([N+]2=C3SCCCN3C(O)(c3ccc(Cl)cc3Cl)C2)cc1 (stereo not drawn) | > 4.17 | 5.21 | –

Row | Compound | IC50 [1] [µM] | IC50 ([2]; Trypanosoma brucei, STIB 795) [µM] | IC50 [2]
67 | CC1CCN(C(c2cc(C(C)(C)C)c(O)c(C(C)(C)C)c2)c2ccccn2)CC1 (stereo not drawn) | > 41.7 | 5.7 | –
68 | Oc1c(C(Nc2ccccn2)c2ccc(C(F)(F)F)cc2)ccc2cccnc12 (stereo not drawn) | > 41.7 | 3.26 | –
69 | CCc1cccc(-n2nnnc2N2CCN(C(=O)Nc3ccc(F)cc3)CC2)c1 | > 41.7 | 4.16 | –
70 | CCc1cc(Sc2ccccc2NC(=O)C2CCCCC2)n2nc(C)nc2n1 | > 41.7 | 5.22 | –
71 | CC(C)(C)c1cc(C(c2ccccc2O)N2CCCCC2)cc(C(C)(C)C)c1O (stereo not drawn) | > 41.7 | 3.39 | 4.51 µM
72 | Cc1cccc(C)c1C(OCC1CN(C(C)C)C(C)(C)O1)c1c(C)cccc1C (stereo not drawn) | > 20.8 | 4.93 | –
73 | C/C(=N\NC(=O)c1cccc(I)c1)c1ccc(O)cc1O | 3.73 | 1.92 | –
74 | O=C(NC(c1ccco1)c1cc(Cl)c2cccnc2c1O)c1cccnc1 (stereo not drawn) | > 20.8 | 0.053 | –
75 | CCCCn1c(=N)n(CC(O)c2ccc(Br)cc2)c2ccccc21 (stereo not drawn) | > 20.8 | 5.24 | 5.32 µM
76 | CN(C)CCn1c(=N)n(CC(O)c2ccc(Cl)c(Cl)c2)c2ccccc21 (stereo not drawn) | > 4.17 | 1.07 | –
77 | CN(C)CCCn1c(N)c(-c2nc3ccccc3[nH]2)c2nc(C#N)c(C#N)nc21 | > 41.7 | 4.08 | –
78 | CCCCC(=O)NC(c1cccs1)c1cc(Cl)c2cccnc2c1O (stereo not drawn) | > 41.7 | 0.666 | –
79 | C[N+](C)(C)c1nc(N2CCOCC2)nc(N(c2ccccc2)c2ccccc2)n1 | > 41.7 | 2.51 | –
80 | COc1ccccc1N1CCN(Cc2cc(Cl)c3cccnc3c2O)CC1 | > 4.17 | 6.05 | > 10.4 µM
81 | CCOc1ccc(N(C(C)=O)C2=C(N(C)C)C(=O)c3ccccc3C2=O)cc1 | > 4.17 | 5.11 | –
82 | COCc1cc(CN2CCN(c3ccccc3OC)CC2)c(O)c2ncccc12 | 1.58 | 2.31 | –
83 | CCCC(=O)NC(c1ccccc1Cl)c1cc(Cl)c2cccnc2c1O (stereo not drawn) | > 20.8 | 1.58 | –
84 | Oc1cccnc1NC(c1ccc(Cl)cc1)c1ccc2cccnc2c1O (stereo not drawn) | > 41.7 | 4.02 | –
85 | Cn1c(=N)n(CC(=O)c2cc(C(C)(C)C)c(O)c(C(C)(C)C)c2)c2ccccc21 | > 20.8 | 4.57 | 2.62 µM
